ChEMBL document CHEMBL5137068, “Discovery of Hexahydrofuro[3,2-b]furans as New Kinase-Selective and Orally Bioavailable JAK3 Inhibitors for the Treatment of Leukemia Harboring a JAK3 Activating Mutant” (J Med Chem, 2022)

Molecular target: T1, Signal transducer and activator of transcription 5A (Homo sapiens) (UniProt P42229)
T1 sequence (whole entry): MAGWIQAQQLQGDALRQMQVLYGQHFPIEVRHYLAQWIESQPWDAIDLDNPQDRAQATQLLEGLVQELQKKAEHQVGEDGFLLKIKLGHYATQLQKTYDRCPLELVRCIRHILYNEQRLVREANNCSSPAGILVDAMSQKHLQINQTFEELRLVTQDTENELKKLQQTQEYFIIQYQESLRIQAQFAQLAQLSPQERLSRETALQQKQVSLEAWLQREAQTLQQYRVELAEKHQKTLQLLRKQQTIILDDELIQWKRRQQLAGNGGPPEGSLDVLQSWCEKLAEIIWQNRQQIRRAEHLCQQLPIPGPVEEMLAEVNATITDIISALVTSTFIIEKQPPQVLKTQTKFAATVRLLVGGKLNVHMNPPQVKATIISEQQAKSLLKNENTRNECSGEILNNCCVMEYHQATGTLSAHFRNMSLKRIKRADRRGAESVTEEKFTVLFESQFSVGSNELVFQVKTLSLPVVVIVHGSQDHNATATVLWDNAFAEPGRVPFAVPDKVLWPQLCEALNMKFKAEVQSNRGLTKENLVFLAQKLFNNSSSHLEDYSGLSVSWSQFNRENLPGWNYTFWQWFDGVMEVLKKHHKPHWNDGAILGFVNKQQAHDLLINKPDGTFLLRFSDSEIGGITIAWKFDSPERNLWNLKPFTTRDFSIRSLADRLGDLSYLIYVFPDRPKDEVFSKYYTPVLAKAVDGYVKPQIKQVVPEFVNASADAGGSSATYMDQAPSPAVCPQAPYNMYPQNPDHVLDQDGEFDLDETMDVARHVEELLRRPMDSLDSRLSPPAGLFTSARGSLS
Assay: Inhibition of STAT5 activation in human U-937 cells assessed as decrease in P-STAT5 at 100 uM by Western blot analysis
Assay type: cell-based
Conditions: time 0-24 hrs, TDE = time-dependent effect

For `C=CC(=O)Nc1cc(Nc2ncc(Cl)c(O[C@@H]3CO[C@H]4[C@@H]3OC[C@H]4OC)n2)ccc1N(C)CCN(C)C`, the inhibition was “Tde”.
